Measured values as given in paper PMC3639963, “A New Class of Small Molecule Inhibitor of BMP Signaling” (PLoS ONE, 2013).

Key:
Experiment in all cases: Nanosyn kinase profiling
Assay type in all cases: biochemical
Details in all cases: read-out: Percentage inhibition; for inhibition at 0.1 µM: 0.1 µM inhibitor; for inhibition at 1 µM: 1 µM inhibitor
P38γ = target: T1, P38γ (Homo sapiens, UniProt P53778)
T1 construct: purchased Nanosyn (enzymatic panel); SGC in-house recombinant human kinases (DSF panel); Invitrogen (ALK1-6)
T1 sequence (P53778 1-367): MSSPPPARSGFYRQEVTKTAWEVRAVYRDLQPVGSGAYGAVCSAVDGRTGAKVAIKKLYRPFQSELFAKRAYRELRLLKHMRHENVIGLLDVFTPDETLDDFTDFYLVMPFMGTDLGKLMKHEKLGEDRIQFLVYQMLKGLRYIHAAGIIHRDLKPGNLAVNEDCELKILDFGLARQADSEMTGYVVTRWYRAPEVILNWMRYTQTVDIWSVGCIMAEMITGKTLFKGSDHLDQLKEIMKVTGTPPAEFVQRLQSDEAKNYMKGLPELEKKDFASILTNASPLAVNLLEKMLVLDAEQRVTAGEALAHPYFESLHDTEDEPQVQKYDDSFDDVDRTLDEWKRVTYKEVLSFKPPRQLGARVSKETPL
Procedure, shortened: (§1)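 Percent inhibition of each kinase was measured with the inhibitor at 0.1 µM and at 1 µM, as part of a 200-kinase human selectivity panel.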

PIM1 = target: T2, PIM1 (Homo sapiens, UniProt P11309)
T2 construct: purchased Nanosyn (enzymatic panel); SGC in-house recombinant human kinases (DSF panel); Invitrogen (ALK1-6)
T2 sequence (P11309 whole entry): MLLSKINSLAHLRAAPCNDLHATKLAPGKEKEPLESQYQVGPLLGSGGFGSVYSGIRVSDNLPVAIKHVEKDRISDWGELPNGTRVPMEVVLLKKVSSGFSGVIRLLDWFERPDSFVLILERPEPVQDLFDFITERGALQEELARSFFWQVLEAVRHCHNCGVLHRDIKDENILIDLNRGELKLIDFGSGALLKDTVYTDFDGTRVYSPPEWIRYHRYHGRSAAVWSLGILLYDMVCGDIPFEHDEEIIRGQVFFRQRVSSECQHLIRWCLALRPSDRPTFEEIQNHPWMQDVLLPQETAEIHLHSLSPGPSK
Procedure, shortened: as §1

PRAK = target: T3, PRAK (Homo sapiens, UniProt Q8IW41)
T3 construct: purchased Nanosyn (enzymatic panel); SGC in-house recombinant human kinases (DSF panel); Invitrogen (ALK1-6)
T3 sequence (Q8IW41 1-473): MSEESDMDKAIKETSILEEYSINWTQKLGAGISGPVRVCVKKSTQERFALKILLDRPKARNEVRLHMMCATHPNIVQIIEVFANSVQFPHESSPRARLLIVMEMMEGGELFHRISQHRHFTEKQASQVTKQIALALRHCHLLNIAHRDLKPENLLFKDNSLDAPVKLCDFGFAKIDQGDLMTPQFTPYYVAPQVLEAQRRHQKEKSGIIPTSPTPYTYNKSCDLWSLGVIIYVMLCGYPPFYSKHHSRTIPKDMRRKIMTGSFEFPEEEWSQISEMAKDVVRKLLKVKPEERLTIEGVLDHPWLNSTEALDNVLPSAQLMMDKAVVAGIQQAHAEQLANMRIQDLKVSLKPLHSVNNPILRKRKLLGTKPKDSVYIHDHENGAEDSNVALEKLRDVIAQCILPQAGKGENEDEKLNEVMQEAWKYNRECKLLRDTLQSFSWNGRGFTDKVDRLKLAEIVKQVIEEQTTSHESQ
Procedure, shortened: as §1

PRKD3 = target: T4, PRKD3 (Homo sapiens, UniProt O94806)
T4 construct: purchased Nanosyn (enzymatic panel); SGC in-house recombinant human kinases (DSF panel); Invitrogen (ALK1-6)
T4 sequence (O94806 1-890): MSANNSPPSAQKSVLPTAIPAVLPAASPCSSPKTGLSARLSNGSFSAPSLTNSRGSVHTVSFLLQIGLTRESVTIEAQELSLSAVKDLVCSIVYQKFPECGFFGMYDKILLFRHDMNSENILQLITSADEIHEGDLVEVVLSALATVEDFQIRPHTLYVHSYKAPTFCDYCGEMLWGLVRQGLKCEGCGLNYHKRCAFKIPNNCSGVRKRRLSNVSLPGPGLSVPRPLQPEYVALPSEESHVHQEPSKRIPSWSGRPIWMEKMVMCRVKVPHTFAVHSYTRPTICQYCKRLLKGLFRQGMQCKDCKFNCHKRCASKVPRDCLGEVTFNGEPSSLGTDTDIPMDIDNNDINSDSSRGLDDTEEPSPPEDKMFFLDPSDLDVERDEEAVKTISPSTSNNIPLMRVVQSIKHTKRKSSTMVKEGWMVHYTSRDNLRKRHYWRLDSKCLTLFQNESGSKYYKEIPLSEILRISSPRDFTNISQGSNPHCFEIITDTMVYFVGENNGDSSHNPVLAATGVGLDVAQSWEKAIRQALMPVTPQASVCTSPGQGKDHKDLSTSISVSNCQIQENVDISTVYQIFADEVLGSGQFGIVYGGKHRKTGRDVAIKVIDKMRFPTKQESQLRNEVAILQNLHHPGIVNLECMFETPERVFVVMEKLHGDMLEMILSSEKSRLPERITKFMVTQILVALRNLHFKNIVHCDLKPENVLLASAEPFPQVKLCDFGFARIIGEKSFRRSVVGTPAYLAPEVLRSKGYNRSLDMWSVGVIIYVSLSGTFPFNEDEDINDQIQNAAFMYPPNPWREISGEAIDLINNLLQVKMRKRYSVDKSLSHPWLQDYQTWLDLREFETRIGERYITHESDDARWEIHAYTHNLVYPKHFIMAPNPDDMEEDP
Procedure, shortened: as §1

RSK4 = target: T5, RSK4 (Homo sapiens, UniProt Q9UK32)
T5 construct: purchased Nanosyn (enzymatic panel); SGC in-house recombinant human kinases (DSF panel); Invitrogen (ALK1-6)
T5 sequence (Q9UK32 whole entry): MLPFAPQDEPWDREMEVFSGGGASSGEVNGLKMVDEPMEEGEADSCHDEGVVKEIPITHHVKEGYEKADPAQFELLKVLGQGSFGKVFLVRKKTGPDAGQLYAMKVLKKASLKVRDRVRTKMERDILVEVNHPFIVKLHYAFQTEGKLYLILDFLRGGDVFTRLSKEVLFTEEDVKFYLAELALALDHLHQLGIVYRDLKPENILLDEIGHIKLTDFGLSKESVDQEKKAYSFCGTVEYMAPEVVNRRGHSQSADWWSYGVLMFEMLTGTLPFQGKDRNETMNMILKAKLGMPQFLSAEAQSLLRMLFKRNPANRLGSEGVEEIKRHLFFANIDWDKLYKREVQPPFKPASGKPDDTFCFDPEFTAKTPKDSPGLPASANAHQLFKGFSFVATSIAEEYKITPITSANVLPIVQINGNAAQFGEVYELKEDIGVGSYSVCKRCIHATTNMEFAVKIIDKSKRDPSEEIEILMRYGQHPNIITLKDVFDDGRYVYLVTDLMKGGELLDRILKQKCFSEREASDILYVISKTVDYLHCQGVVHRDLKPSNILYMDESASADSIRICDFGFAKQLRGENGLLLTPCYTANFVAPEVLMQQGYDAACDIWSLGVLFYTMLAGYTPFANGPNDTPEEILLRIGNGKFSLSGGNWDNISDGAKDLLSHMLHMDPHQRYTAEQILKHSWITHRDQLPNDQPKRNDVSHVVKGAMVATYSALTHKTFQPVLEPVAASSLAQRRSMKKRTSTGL
Procedure, shortened: as §1

SGK2 = target: T6, SGK2 (Homo sapiens, UniProt Q9HBY8)
T6 construct: purchased Nanosyn (enzymatic panel); SGC in-house recombinant human kinases (DSF panel); Invitrogen (ALK1-6)
T6 sequence (Q9HBY8 1-367): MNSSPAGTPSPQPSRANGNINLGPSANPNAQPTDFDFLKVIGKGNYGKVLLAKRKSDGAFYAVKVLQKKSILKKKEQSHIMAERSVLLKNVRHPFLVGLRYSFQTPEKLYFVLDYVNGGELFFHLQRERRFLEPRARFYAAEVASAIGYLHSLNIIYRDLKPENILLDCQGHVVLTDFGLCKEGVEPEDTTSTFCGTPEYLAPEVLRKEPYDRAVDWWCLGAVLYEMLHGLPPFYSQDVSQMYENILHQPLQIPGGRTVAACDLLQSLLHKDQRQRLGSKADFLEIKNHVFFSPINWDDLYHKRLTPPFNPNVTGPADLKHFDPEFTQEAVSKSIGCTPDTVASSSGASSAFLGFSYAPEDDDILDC
Procedure, shortened: as §1

cRAF = target: T7, cRAF (Homo sapiens, UniProt P04049)
T7 construct: purchased Nanosyn (enzymatic panel); SGC in-house recombinant human kinases (DSF panel); Invitrogen (ALK1-6)
T7 sequence (P04049 whole entry): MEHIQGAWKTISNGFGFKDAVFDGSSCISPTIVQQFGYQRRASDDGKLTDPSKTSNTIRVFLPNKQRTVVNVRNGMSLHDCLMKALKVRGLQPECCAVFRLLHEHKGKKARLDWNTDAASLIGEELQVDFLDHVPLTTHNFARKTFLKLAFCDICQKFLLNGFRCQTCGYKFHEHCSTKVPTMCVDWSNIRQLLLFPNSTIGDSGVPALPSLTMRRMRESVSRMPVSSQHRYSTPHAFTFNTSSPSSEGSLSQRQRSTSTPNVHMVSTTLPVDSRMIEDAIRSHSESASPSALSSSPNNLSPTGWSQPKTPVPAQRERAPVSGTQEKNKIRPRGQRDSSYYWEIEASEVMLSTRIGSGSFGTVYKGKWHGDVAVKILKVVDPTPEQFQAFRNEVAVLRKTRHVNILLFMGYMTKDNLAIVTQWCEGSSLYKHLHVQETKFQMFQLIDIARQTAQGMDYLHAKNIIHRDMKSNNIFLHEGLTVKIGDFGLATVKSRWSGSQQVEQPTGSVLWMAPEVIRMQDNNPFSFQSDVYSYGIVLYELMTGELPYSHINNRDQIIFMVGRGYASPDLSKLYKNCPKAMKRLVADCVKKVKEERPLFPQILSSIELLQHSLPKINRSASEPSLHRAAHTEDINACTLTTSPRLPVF
Procedure, shortened: as §1

| SMILES | inhibition at 0.1 µM (P38γ) [%] | inhibition at 1 µM (P38γ) [%] | inhibition at 0.1 µM (PIM1) [%] | inhibition at 1 µM (PIM1) [%] | inhibition at 0.1 µM (PRAK) [%] | inhibition at 1 µM (PRAK) [%] | inhibition at 0.1 µM (PRKD3) [%] | inhibition at 1 µM (PRKD3) [%] | inhibition at 0.1 µM (RSK4) [%] | inhibition at 1 µM (RSK4) [%] | inhibition at 0.1 µM (SGK2) [%] | inhibition at 1 µM (SGK2) [%] | inhibition at 0.1 µM (cRAF) [%] | inhibition at 1 µM (cRAF) [%] |
| --- | --- | --- | --- | --- | --- | --- | --- | --- | --- | --- | --- | --- | --- | --- |
| COc1cc(-c2cc(-c3cccc(O)c3)cnc2N)cc(OC)c1OC [K02288, 3-[6-amino-5-(3,4,5-trimethoxy-phenyl)-pyridin-3-yl]-phenol] | -1 | -1 | 0.2 | 1.5 | 0 | 0 | -1 | 3.2 | 0.1 | 1 | 2.7 | 1.3 | -5 | -8 |
| c1ccc2c(-c3cnn4cc(-c5ccc(N6CCNCC6)cc5)cnc34)ccnc2c1 [LDN-193189] | 1.2 | 1.3 | -1 | -1 | 0.8 | 0.1 | 3.2 | 13 | 0.8 | 3.8 | 2.3 | 0.2 | 0.6 | 0.1 |
